# According to ChEMBL document CHEMBL1201862, “PubChem BioAssay data set” (2004):
# Where “and” joins values, the source holds several entries; their conditions need not be identical. Equal values may be shown once. Calls of active or inactive are those of the source.
# Legend:
# [1] = target: T1, Ubiquitin-conjugating enzyme E2 N (Homo sapiens, UniProt P61088); assay type: functional;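 note: Dose-response confirmation in a TR-FRET assay detecting UBC13-driven polyubiquitin chain formation, inhibition measured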
# T1 sequence (P61088 whole entry): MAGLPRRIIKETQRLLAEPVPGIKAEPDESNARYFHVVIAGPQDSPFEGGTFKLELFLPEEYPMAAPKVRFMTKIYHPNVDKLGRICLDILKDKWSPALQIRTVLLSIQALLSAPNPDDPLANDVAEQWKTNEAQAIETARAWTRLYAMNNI
# [2] = target: T2, Carboxy-terminal domain RNA polymerase II polypeptide A small phosphatase 1 (Homo sapiens, UniProt Q9GZU7); assay: inhibitors of CTDSP1, concentration-response testing, biochemical assay, absorbance-based, actives from ultra-high-throughput screening (AID 540297); assay type: functional
# T2 sequence (Q9GZU7 whole entry): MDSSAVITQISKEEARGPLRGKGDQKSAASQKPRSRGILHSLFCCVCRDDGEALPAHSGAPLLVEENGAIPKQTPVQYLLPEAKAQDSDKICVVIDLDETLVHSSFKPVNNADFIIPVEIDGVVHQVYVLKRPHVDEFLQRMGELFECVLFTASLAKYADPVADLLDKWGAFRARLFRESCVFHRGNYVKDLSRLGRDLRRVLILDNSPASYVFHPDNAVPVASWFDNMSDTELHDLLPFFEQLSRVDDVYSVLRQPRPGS
# [3] = target: DNA dC->dU-editing enzyme APOBEC-3A (Homo sapiens, UniProt P31941); assay: Dose Response confirmation of small molecule APOBEC3A DNA Deaminase Inhibitors via a fluorescence-based single-stranded DNA deaminase assay. [Related pubchem assays (depositor defined):AID493011, AID493024]; assay type: functional
# [4] = target: DNA dC->dU-editing enzyme APOBEC-3G (Homo sapiens, UniProt Q9HC16); assay type: functional;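 note: Dose-response counterscreen measuring inhibition of APOBEC3G DNA deaminase activity, run while confirming APOBEC3A inhibitors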
# [5] = target: T3, Short transient receptor potential channel 4 (Mus musculus, UniProt Q9QUQ5); assay: mouse TRPC4 channel inhibitors, dose response, cell-based, HEK293 TRPC4/mu-opioid, Fluo-4 calcium (AID 434942); assay type: functional;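 note: potency of inhibitors blocking the TRPC4 calcium response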
# T3 sequence (Q9QUQ5 whole entry): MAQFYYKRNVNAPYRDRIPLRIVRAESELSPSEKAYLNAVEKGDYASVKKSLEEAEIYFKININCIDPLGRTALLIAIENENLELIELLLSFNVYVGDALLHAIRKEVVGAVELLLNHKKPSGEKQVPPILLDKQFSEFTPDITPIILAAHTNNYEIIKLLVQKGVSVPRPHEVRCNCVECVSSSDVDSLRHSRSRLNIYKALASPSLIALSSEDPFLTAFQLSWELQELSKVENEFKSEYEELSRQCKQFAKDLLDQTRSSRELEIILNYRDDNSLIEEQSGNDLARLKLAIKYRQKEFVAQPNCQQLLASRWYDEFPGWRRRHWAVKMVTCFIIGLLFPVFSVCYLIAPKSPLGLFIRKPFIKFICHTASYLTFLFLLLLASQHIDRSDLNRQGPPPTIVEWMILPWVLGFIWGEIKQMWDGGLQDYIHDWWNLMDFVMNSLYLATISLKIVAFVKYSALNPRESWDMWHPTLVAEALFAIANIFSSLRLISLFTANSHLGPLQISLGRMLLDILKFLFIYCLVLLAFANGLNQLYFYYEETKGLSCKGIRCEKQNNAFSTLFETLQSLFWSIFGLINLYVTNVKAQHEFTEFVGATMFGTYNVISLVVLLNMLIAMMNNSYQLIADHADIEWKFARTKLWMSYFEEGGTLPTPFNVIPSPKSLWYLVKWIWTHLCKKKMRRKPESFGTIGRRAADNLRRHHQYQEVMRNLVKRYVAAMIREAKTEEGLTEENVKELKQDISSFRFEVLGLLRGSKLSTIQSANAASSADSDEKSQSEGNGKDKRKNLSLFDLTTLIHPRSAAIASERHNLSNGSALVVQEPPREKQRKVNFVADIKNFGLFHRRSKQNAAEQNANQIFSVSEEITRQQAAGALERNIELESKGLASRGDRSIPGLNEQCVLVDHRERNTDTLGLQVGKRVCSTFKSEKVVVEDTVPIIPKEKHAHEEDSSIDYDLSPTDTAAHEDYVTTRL
# Cytochrome P450 3A4 [6] = target: T4, Cytochrome P450 3A4 (Homo sapiens, UniProt P08684); conditions: Potency
# Large T antigen = Large T antigen (Simian virus 40, UniProt P03070); assay type: functional, Betapolyomavirus macacae;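 note: Confirmatory-stage PubChem screen for compounds that inhibit SV40 T antigen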
# [7] = target: FAD-linked sulfhydryl oxidase ALR (Homo sapiens, UniProt P55789); assay: inhibitors of human ALR sulfhydryl oxidase, dose response, biochemical, H2O2 detection, luminescence, cherry-pick (AID 493248)
# [8] = target: T5, Heat shock factor protein 1 (Mus musculus, UniProt P38532); assay: inhibition of MG132-induced HSE-luciferase signal, confirmation, cell-based, NIH3T3, luminescence, dose retest (AID 2382); assay type: functional;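 note: NIH3T3 fibroblasts with HSF1-driven luciferase reporter stressed by proteasome inhibitor MG132; luminescence from HSF1-driven luciferase expression after 8 hours of MG132 stress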
# T5 sequence (P38532 whole entry): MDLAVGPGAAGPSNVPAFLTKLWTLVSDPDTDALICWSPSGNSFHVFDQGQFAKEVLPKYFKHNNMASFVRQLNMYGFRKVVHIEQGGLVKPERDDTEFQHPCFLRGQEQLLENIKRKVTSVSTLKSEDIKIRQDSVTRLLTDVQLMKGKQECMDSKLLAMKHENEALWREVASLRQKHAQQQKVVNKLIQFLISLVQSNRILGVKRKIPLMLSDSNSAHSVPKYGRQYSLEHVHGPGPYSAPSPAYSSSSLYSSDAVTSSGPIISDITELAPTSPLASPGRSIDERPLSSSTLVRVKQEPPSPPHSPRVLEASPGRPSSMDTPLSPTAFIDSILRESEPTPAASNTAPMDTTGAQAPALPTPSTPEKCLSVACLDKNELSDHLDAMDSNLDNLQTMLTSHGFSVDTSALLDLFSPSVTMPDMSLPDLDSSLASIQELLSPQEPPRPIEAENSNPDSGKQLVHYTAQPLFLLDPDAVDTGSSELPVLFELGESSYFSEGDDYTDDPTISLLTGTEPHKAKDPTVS
# cells = assay type: functional
# [9] = target: T5, Heat shock factor protein 1; assay: HSF1 potentiators in luciferase reporter cells, confirmation, cell-based, NIH3T3, luminescence, dose retest (AID 435004); assay type: functional;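 note: stress induced by proteasome inhibitor MG132 added 30 min after compound; luciferase reporter driven by HSF1 response element in NIH3T3 cells; actives raise luminescence as potentiators of the MG132 stress response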
# [10] = HEK293 cell cytotoxicity, dose response, cytotoxicity control, plate reader, cherry-picked samples (AID 743446); assay type: functional, cell-based
# [11] = MC4R antagonists, dose response, counter-screen for LGR2 antagonist project, cell-based, plate reader, cherry pick (AID 743444); assay type: functional;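 note: transfected HEK 293 cells stimulated with alpha-MSH peptide; potency of inhibitors of the alpha-MSH evoked signal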
# [12] = LGR2 antagonists, dose response, cell-based, HEK293, CRE-luciferase reporter, cherry pick, set 2 (AID 743343); assay type: functional;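 note: transfected cells were stimulated with diluted bursicon conditioned medium after compound addition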
# [13] = HepG2 cell cytotoxicity, dose response, cytotoxicity control, plate reader, cherry-pick, antagonist series (AID 743416); assay type: functional, cell-based
# [14] = A549 cell cytotoxicity, dose response, cytotoxicity control, plate reader, cherry-pick, antagonist series (AID 743412); assay type: functional, cell-based
# Cytochrome P450 3A4 [15] = target: T4, Cytochrome P450 3A4
# [16] = ZM109 Env clade C HIV-1 fusion inhibitors, dose response, HeLa effector, CEM target cells, luciferase, cherry-pick (AID 652058); assay type: functional, cell-based
# [17] = P. falciparum Dd2 growth inhibitors, dose response, SYBR Green, cherry-picked samples (AID 1159567); assay type: functional, cell-based
# [18] = microbe, parasite or virus in culture; assay type: functional; conditions: Mycobacterium tuberculosis
# Large T antigen, sequence (P03070 whole entry): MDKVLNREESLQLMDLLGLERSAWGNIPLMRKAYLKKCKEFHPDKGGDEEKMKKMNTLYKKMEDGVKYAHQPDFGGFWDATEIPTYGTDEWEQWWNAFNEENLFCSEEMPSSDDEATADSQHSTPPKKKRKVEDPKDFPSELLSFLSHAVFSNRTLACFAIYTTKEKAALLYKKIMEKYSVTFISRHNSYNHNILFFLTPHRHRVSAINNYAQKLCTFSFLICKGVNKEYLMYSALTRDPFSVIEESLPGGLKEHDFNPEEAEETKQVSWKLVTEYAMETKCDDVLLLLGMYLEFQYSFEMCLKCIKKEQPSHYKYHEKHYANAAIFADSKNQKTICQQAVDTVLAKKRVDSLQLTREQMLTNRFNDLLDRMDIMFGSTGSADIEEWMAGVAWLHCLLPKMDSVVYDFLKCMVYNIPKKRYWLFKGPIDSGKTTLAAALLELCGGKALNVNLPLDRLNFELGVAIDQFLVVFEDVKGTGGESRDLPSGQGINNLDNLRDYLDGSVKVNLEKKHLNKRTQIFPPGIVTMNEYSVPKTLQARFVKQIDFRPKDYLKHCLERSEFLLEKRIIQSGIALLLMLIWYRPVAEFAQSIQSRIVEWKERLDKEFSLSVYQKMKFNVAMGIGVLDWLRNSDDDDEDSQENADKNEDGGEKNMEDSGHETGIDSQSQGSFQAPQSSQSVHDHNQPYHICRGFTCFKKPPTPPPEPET
# DNA dC->dU-editing enzyme APOBEC-3G, sequence (Q9HC16 whole entry): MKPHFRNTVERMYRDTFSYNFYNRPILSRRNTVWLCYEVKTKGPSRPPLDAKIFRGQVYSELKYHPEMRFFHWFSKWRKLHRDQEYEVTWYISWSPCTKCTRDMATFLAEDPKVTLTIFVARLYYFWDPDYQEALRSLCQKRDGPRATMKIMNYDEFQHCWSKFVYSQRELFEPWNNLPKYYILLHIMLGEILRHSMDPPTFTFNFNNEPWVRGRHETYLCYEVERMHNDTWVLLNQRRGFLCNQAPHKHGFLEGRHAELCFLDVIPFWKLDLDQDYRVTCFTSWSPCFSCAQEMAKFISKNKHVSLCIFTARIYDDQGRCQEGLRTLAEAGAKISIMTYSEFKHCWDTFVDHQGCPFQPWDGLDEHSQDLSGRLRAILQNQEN
# DNA dC->dU-editing enzyme APOBEC-3A, sequence (P31941 whole entry): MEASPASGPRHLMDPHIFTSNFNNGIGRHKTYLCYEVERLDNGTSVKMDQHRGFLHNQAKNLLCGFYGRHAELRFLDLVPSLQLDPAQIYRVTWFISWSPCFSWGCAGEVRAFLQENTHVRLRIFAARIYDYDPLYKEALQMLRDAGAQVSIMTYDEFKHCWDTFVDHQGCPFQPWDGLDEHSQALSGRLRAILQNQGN
# FAD-linked sulfhydryl oxidase ALR, sequence (P55789 whole entry): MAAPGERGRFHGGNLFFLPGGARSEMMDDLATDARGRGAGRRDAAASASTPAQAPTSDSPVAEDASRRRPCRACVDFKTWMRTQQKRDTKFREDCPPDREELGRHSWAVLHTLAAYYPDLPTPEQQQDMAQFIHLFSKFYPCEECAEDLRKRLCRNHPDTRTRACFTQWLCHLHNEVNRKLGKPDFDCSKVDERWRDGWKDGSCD
# T4 sequence (P08684 whole entry): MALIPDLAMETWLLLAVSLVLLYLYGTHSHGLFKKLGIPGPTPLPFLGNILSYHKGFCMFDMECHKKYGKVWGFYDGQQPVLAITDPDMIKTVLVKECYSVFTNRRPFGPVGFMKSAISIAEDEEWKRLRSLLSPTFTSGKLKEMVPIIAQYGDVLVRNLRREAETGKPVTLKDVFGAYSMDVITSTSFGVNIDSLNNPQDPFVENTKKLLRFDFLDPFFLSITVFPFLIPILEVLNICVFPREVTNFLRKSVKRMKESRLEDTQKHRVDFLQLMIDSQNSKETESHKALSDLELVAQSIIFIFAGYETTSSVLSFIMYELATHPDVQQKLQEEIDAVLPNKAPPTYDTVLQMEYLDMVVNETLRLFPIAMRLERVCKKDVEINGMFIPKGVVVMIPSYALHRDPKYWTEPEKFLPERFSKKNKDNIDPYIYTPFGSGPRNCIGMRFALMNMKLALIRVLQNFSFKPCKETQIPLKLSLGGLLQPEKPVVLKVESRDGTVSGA
smiles,measurement,setting,value
Cc1ccc2[nH]c(O)c(/N=N/C(=N)S)c2c1,IC50,[1],> 20 µM (inactive)
CCCCCCSc1cc(-c2nc3cc(C)ccn3c2NC2CCCCC2)ccc1OC,IC50,[1],> 20 µM (inactive)
COc1cc(/C=C/c2cc[n+](C)cc2)ccc1OCC(=O)Nc1ccccc1,IC50,[2],5.84 µM (active)
same,IC50,[3],2.93 µM (active)
same,IC50,[4],2.02 µM (active)
NS(=O)(=O)c1ccc(CCNCc2ccccc2OCc2ccc(F)cc2)cc1,EC50,[5],3.35 µM (active)
O=C1OC(C2=CCCCC2)=NC12CC2,AC50,Cytochrome P450 3A4 [6],5.01 µM (inconclusive)
N#CC1=C(S)N(c2ccccc2)C(c2ccc(-c3ccc(Cl)c(Cl)c3)o2)NC1=O (stereo not given),IC50,Large T antigen,62.7 µM (active)
O=C(c1ccc2c(c1)OCO2)N1CCN=C1SCc1ccccc1,AC50,[7],> 100 µM (inactive)
CCC1=C2CC[C@H]3C(=O)N(CC)C(=O)[C@H]3[C@H]2[C@@]2(C)/C(=N/CC(=O)OC)OC(=O)N2C1=O,AC50,Cytochrome P450 3A4 [6],15.8 µM (inconclusive)
C[C@@]12CCC(O)C[C@H]1CCC1C2CC[C@]2(C)C(=O)CCC12 (stereo not given in full),AC50,Cytochrome P450 3A4 [6],15.8 µM (inconclusive)
Clc1ccc(-c2nc3cnccn3c2NC2CCCC2)cc1,AC50,[7],4.85 µM (active)
COc1ccc(Nc2c3c(nc4ccccc24)CCCC3)cc1OC,AC50,[7],0.511 µM (active)
CC(=O)Nc1ccc(-c2ccccc2)s1,IC50,[3],5.3 µM (active)
same,IC50,[4],5.05 µM (active)
N=C1/C(=C/c2ccco2)C(=O)N=C2SC(CC(=O)N3CCCC3)=NN12,IC50,[2],7.01 µM (active)
same,IC50,[3],18.5 µM (active)
same,IC50,[4],37.6 µM (active)
CCCC[N+]12CCC(CC1)C(C(O)(c1ccccc1)c1ccccc1)C2 (stereo not given),IC50,[3],2.74 µM (active)
same,EC50,[8],> 195 µM (not active)
same,IC50,[4],2.79 µM (active)
CC1Cc2ccccc2N1C(=O)COC(=O)c1ccc(Cl)nc1 (stereo not given),IC50,cells,39.8 µM (active)
CN(C)c1ccc(NC(=O)c2cccc(N3C(=O)CCC3=O)c2)cc1,IC50,Large T antigen,9.21 µM (active)
COC(=O)CNC(=O)C1(CC(C)C)C=CCN1C(=O)c1ccccc1 (stereo not given),AC50,Cytochrome P450 3A4 [6],20 µM (inconclusive)
Cc1cc(Cl)ccc1OC(C)C(=O)Nc1ccc([N+](=O)[O-])cn1 (stereo not given),IC50,cells,38 µM (active)
O=C(Nc1ccc(Oc2ccccc2)nc1)C1CCN(Cc2ccccc2)CC1,EC50,[5],2.37 µM (active)
COC(=O)c1ccc(CSc2nc3ccccc3c(=O)n2CC(C)C)o1,EC50,[5],3.35 µM (active)
same,EC50,[9],> 260 µM (inactive)
Cc1c(C)c2ccc(OCC(=O)Nc3nccs3)cc2oc1=O,AC50,[10],> 52 µM (inactive)
same,AC50,[11],4.38 µM (active)
same,AC50,[12],4.84 µM (active)
Cc1cc(C)cc(NC(=O)CCc2ccc(C)o2)c1,IC50,cells,36.7 µM (active)
O=C(Nc1nc2ccccc2s1)c1ccc2c(c1)OCO2,AC50,[10],31.5 µM (active)
same,AC50,[11],4.59 µM (active)
same,AC50,[12],3.49 µM (active)
same,AC50,[13],> 52 µM (inactive)
same,AC50,[14],> 52 µM (inactive)
CNC(=O)COc1ccc2oc3c(c2c1)CCCC3,EC50,[5],1.33 µM (active)
CCCCNc1nc(-c2ccccc2)c(C(=O)OCC)cc1C#N,AC50,Cytochrome P450 3A4 [15],28.2 µM (inconclusive)
same,EC50,[5],1.19 µM (active)
O=C(Nc1nnc(-c2cc(Cl)ccc2Cl)o1)C1=COCCO1,IC50,cells,11.6 µM (active)
CCOC(=O)c1cc(C#N)c(N2CCCCC2)nc1-c1ccccc1,EC50,[5],3.76 µM (active)
CC(C)NC(=O)N(C)C[C@@H]1Oc2ccc(NC(=O)C3CC3)cc2CC(=O)N([C@@H](C)CO)C[C@@H]1C,AC50,[16],64.5 µM (active)
COc1ccc(S(=O)(=O)Nc2ccc3c(c2)C(=O)N([C@@H](C)CO)C[C@H](C)[C@@H](CN(C)C(=O)Nc2cccc4ccccc24)OCCCC[C@H](C)O3)cc1,AC50,[10],> 52 µM (inactive)
same,AC50,[11],8.72 µM (active)
same,AC50,[13],> 52 µM (inactive)
same,AC50,[14],22.8 µM (active)
C/C(CC(=O)Nc1ccc(N(C)C)cc1)=N\NC(=O)c1cnccn1,IC50,Large T antigen,17.5 µM (active)
CC(C)(C)[S@+]([O-])N1Cc2cc(C(=O)NC3CCC3)nc(-c3cccc(Br)c3)c2[C@@H]1CCO,AC50,[17],7.47 µM (active)
COc1ccc(-c2ccccc2[C@H]2[C@@H](CO)N(C(=O)C3CCOCC3)[C@H]2C#N)cc1,AC50,[17],> 39 µM (inactive)
CO[C@@H]1CN(C)C(=O)c2ccc(NC(=O)Nc3cccc(F)c3)cc2OC[C@H](C)NC[C@H]1C,AC50,[17],7.62 µM (active)
CC1=NN(c2ccccc2)C(=O)C1C(=O)c1ccccc1 (stereo not given),IC50,cells,42.1 µM (active)
same,CC50,[18],> 40 µM (active)
"COc1cc(OC)c2c(=O)c(-c3ccccc3)c(C)oc2c1OC [2-METHYL-5,7,8-TRIMETHOXYISOFLAVONE]",AC50,Cytochrome P450 3A4 [6],20 µM (inconclusive)
COc1cccc2c1cc([N+](=O)[O-])c1c(C(=O)O)cc3c(c12)OCO3 [ARISTOLOCHIC ACID],AC50,Cytochrome P450 3A4 [6],10 µM (inconclusive) and 63.1 nM (inconclusive)
